Series [1] in a line: Inhibition of Pseudomonas aeruginosa beta lactamase TEM-1.
The target of series [2] is Beta-lactamase (Pseudomonas aeruginosa (strain ATCC 15692 / PAO1 / 1C / PRS 101 / LMG12228), UniProt P24735). As to the kind of experiment: Inhibition of Pseudomonas aeruginosa beta lactamase AmpC.
Series [3] has as its target Beta-lactamase (Enterobacter cloacae, UniProt P05364). As to the kind of experiment: Inhibition of Enterobacter cloacae beta lactamase P99.
The next series addresses Beta-lactamase SHV-5 (Klebsiella pneumoniae, UniProt P0A3M1). As to the kind of experiment: Inhibition of Klebsiella pneumoniae beta lactamase SHV-5.
Series [4] concerns the target Beta-lactamase (Acinetobacter baumannii, UniProt Q8RLA6). Briefly: Inhibition of Acinetobacter baumannii beta lactamase OXA-40.
For the next series, the system named is Mus musculus. As to the kind of experiment: Dose normalized AUC in mouse at 2.5 mg/kg, iv. The series is classed as ADME, organism-based. More on the design: dose 2.5 mg/kg, route intravenous. Particulars: in vivo.
Series [5] in a line: Clearance in mouse at 2.5 mg/kg, iv. The series is classed as ADME, organism-based. Details: dose 2.5 mg/kg, route intravenous. Particulars: in vivo.
A short description of series [6]: Half life in mouse at 2.5 mg/kg, iv. The series is classed as ADME, organism-based. Particulars: in vivo. More on the design: dose 2.5 mg/kg, route intravenous.
The subject of series [7] is Pseudomonas aeruginosa. Briefly: Antimicrobial activity against imipenem-resistant Pseudomonas aeruginosa expressing beta lactamase AmpC up to 100 uM. The series is classed as functional, organism-based.
For series [8], the system named is Acinetobacter baumannii. As to the kind of experiment: Antimicrobial activity against imipenem-resistant Acinetobacter baumannii CL6188 at 100 uM. The series is classed as functional, organism-based.
Series [9] in a line: Volume of distribution in mouse at 2.5 mg/kg, iv. Particulars: in vivo. Details: dose 2.5 mg/kg, route intravenous. The series is classed as ADME, organism-based.
Series [10] relates to Pseudomonas aeruginosa. As to the kind of experiment: Antimicrobial activity against imipenem-resistant Pseudomonas aeruginosa expressing beta lactamase AmpC assessed as reduction in imipenim MIC. The series is classed as functional, organism-based.
The subject of series [11] is Acinetobacter baumannii. As to the kind of experiment: Antimicrobial activity against imipenem-resistant Acinetobacter baumannii CL6188 assessed as reduction in imipenim MIC. The series is classed as functional, organism-based.
For series [12], the system named is Pseudomonas aeruginosa. Briefly: Antimicrobial activity against imipenem-resistant Pseudomonas aeruginosa expressing beta lactamase AmpC assessed as reduction in imipenim MIC up to 100 uM. The series is classed as functional, organism-based.

The source made the active and inactive calls. The rule behind the calls is not given here.

Chain of Beta-lactamase SHV-5 (P0A3M1 whole entry): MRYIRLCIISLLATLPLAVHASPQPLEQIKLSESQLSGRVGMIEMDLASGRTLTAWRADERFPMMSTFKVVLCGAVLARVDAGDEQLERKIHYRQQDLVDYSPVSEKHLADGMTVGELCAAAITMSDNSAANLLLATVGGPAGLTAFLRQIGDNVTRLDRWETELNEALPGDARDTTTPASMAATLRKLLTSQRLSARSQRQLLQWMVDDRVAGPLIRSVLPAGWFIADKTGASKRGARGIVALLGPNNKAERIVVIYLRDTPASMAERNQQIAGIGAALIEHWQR
Chain of Beta-lactamase (Enterobacter cloacae, UniProt P05364) (P05364 whole entry): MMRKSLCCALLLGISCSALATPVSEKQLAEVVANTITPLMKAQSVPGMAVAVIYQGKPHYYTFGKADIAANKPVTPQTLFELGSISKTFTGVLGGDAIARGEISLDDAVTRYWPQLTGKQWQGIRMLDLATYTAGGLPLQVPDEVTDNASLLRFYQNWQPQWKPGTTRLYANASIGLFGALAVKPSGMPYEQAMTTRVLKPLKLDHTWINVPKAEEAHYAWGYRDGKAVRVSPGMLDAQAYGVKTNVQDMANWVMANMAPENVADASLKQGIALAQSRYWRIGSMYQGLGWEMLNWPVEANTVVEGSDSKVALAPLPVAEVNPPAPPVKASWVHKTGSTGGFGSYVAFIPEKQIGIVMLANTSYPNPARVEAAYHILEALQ
Chain of Beta-lactamase (Acinetobacter baumannii, UniProt Q8RLA6) (Q8RLA6 whole entry): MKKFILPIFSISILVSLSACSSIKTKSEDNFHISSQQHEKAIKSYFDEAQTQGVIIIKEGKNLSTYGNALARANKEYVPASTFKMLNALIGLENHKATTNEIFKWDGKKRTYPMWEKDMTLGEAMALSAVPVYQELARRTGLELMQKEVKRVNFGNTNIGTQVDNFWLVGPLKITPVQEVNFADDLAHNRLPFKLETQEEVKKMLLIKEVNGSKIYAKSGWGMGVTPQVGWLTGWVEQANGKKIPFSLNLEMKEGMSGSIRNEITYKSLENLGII
Chain of Beta-lactamase (Pseudomonas aeruginosa (strain ATCC 15692 / PAO1 / 1C / PRS 101 / LMG12228), UniProt P24735) (P24735 whole entry): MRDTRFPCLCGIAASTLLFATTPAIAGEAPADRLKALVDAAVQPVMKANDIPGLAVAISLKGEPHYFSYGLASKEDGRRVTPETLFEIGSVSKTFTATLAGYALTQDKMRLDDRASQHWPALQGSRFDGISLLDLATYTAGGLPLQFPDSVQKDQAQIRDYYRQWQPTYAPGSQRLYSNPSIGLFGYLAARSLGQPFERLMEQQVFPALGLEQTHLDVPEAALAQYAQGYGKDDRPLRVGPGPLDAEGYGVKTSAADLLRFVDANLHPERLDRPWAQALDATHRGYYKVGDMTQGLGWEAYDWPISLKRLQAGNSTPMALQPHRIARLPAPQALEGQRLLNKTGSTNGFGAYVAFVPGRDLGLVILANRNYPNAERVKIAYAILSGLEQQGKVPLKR

For the molecule `CO/N=C(\C(=O)NCP(=O)(O)O)c1cccs1`, the half-inhibitory concentration (IC50) in series [1] is more than 50 µM; at Beta-lactamase [2], 6.5 µM; on Beta-lactamase [3], 21 µM; against Beta-lactamase SHV-5 it was more than 50 µM; against Beta-lactamase [4], more than 50 µM.

Turning to `CO/N=C(\C(=O)NCP(=O)(O)Oc1ccc(C#N)c(F)c1)c1cnc(N)s1`, the IC50 was more than 50 µM in series [1]; 1.5 µM at Beta-lactamase [2]; 0.8 µM on Beta-lactamase [3]; more than 50 µM against Beta-lactamase SHV-5; more than 50 µM at Beta-lactamase [4].

As to `N#Cc1ccc(OP(=O)([O-])CNC(=O)/C(=N\OCCC[n+]2ccccc2)c2cccs2)cc1F` (stereo in doubt; 6a), the IC50 in series [1] was 17 µM; on Beta-lactamase [2] it was 0.021 µM; at Beta-lactamase [3], 0.087 µM; at Beta-lactamase SHV-5, more than 50 µM; on Beta-lactamase [4], 27 µM.

With `CO/N=C(/C(=O)NCP(=O)(O)O)c1cccs1`, the concentration for half-maximal inhibition (IC50) in series [1] was more than 50 µM; at Beta-lactamase [2] it was 3.2 µM; at Beta-lactamase [3], 3 µM; against Beta-lactamase SHV-5, more than 50 µM; at Beta-lactamase [4], more than 50 µM.

As for `CO/N=C(\C(=O)NCP(=O)(O)Oc1ccc(C#N)c(F)c1)c1cnc(NC(=O)C(Cl)(Cl)Cl)s1` (stereo in doubt; 2b), the half-maximal inhibitory concentration (IC50) was 3 µM at Beta-lactamase [2], 0.71 µM at Beta-lactamase [3], 15 µM at Beta-lactamase SHV-5 and more than 12.5 µM against Beta-lactamase [4].

For `N#Cc1ccc(OP(=O)(O)CNC(=O)C(=NO)c2cccs2)cc1F`, the IC50 was determined as 23 µM in series [1]; 0.2 µM at Beta-lactamase [2]; 0.1 µM against Beta-lactamase [3]; 27 µM on Beta-lactamase SHV-5; 21 µM at Beta-lactamase [4].

Regarding `CON=C(C(=O)NCP(=O)(O)Oc1ccc(C#N)c(F)c1)c1cccs1`, the IC50 in series [1] is more than 50 µM; against Beta-lactamase [2], 0.0096 µM; at Beta-lactamase [3] it was 0.039 µM; against Beta-lactamase SHV-5, more than 50 µM; against Beta-lactamase [4], more than 50 µM.

As for `CO/N=C(/C(=O)NCP(=O)(O)Oc1ccc(C#N)c(F)c1)c1cccs1`, the IC50 in series [1] is 28 µM; against Beta-lactamase [2], 0.0075 µM; on Beta-lactamase [3], 0.032 µM; against Beta-lactamase SHV-5 it was 22 µM; on Beta-lactamase [4] it was 17 µM. In addition, the AUC/dose in the series with Mus musculus was determined as 0.98 µM/h/kg/mg. Moreover, the clearance in [5] stood at 43 mL/min/kg. In series [6], this molecule showed a half-life of 32.4 min. In addition, the outcome with Pseudomonas aeruginosa [7] and with Acinetobacter baumannii [8] was inactive. The molecule further returned a Vd in series [9] of 1 L/kg. For the same molecule, in the series with Pseudomonas aeruginosa [10], the Activity result was “Dose-dependent effect”. Further, the outcome in the series with Acinetobacter baumannii [11] and with Pseudomonas aeruginosa [12] was Active.

As to `CO/N=C(\C(=O)NCP(=O)(O)Oc1ccc(C#N)c(F)c1)c1cccs1`, the half-maximal inhibitory concentration (IC50) is more than 50 µM in series [1]; 0.046 µM against Beta-lactamase [2]; 0.1 µM on Beta-lactamase [3]; more than 12.5 µM against Beta-lactamase SHV-5; 26 µM at Beta-lactamase [4].

Take `N#Cc1ccc(OP(=O)([O-])CNC(=O)/C(=N\OCCC[n+]2ccccc2)c2cccs2)cc1F` (stereo in doubt; 6b): the concentration for half-maximal inhibition (IC50) is more than 50 µM in [1]; 0.087 µM against Beta-lactamase [2]; 0.17 µM against Beta-lactamase [3]; more than 50 µM at Beta-lactamase SHV-5; more than 50 µM against Beta-lactamase [4].

Take `CO/N=C(\C(=O)NCP(=O)(O)Oc1ccc(C#N)c(F)c1)c1cnc(NC(=O)C(Cl)(Cl)Cl)s1` (stereo in doubt; 2a): the half-maximal inhibitory concentration (IC50) in [1] was more than 50 µM; on Beta-lactamase [2], 3 µM; on Beta-lactamase [3], 0.34 µM; against Beta-lactamase SHV-5 it was 25 µM; at Beta-lactamase [4] it was more than 12.5 µM.

Take `CO/N=C(/C(=O)NCP(=O)(O)Oc1ccc(C#N)c(F)c1)c1ccc(Cl)s1`: the 50% inhibitory concentration (IC50) is 16 µM in series [1], 0.005 µM against Beta-lactamase [2], 0.019 µM on Beta-lactamase [3] and 31 µM on Beta-lactamase [4]. Besides, the outcome with Pseudomonas aeruginosa [7], in the series on Acinetobacter baumannii [8] and in the series on Acinetobacter baumannii [11] was inactive. In addition, the Activity entry in the series on Pseudomonas aeruginosa [10] is “Dose-dependent effect”. The result with Pseudomonas aeruginosa [12] was Active.

The values above are taken from ChEMBL document CHEMBL1795309, “Thiophenyl oxime-derived phosphonates as nano-molar class C beta-lactamase inhibitors reducing MIC of imipenem against Pseudomonas aeruginosa and Acinetobacter baumannii” (Bioorg Med Chem Lett, 2011).
